Reference: patent US10105357B2, “Indication of antibiotic drugs for preparation of cancer inhibition pharmaceutical composition” (LAUNX BIOMEDICAL CO., LTD., priority 2014, dated 2018)
Where two headings read alike, the source gives them in different places.

Experiments:
[1] = test system: MCF7 (Mammary Gland, Adenocarcinoma); experiment: Cell viability analysis, breast cancer MCF7; assay type: cell-based, human; conditions: Homo sapiens, MCF7, 72 h
T24 = experiment: Cell viability analysis, bladder cancer T24; assay type: cell-based, human; conditions: Homo sapiens, T-24, 72 h, read-out: The results of antibiotic drug inhibiting cancer cell lines (cell viability analysis), T24
[2] = test system: A549 (Lung Adenocarcinoma); experiment: Cell viability analysis, lung cancer A549; assay type: cell-based, human; conditions: Homo sapiens, A549, 72 h
[3] = test system: AGS (Gastric Adenocarcinoma); experiment: Cell viability analysis, gastric cancer AGS; assay type: cell-based, human; conditions: Homo sapiens, 72 h
[4] = test system: LoVo (Colorectal Adenocarcinoma); experiment: Cell viability analysis, colon cancer LoVo; assay type: cell-based, human; conditions: Homo sapiens, LoVo, 72 h
AsPC-1 = experiment: Cell viability analysis, pancreatic cancer AsPC-1; assay type: cell-based, human; conditions: Homo sapiens, ASPC1, 72 h, read-out: The results of antibiotic drug inhibiting cancer cell lines (cell viability analysis), AsPC-1
TOV-21G = experiment: Cell viability analysis, ovarian cancer TOV-21G; assay type: cell-based, human; conditions: Homo sapiens, TOV21G, 72 h, read-out: The results of antibiotic drug inhibiting cancer cell lines (cell viability analysis), TOV-21G
cancer cell lines = experiment: Cell viability analysis (WST-1) on cancer cell lines; assay type: cell-based, human; conditions: drug 10 μM, 72 hours, WST-1; Table 3
[5] = test system: MKN-45 (Gastric Adenocarcinoma); experiment: Cell viability analysis, gastric cancer MKN-45; assay type: cell-based, human; conditions: Homo sapiens, MKN-45, 72 h
[6] = test system: SAS (Tongue squamous cell carcinoma); experiment: Cell viability analysis, tongue cancer SAS; assay type: cell-based, human; conditions: Homo sapiens, 72 h, read-out: The results of antibiotic drug inhibiting cancer cell lines (cell viability analysis), SAS
BxPC-3 = experiment: Cell viability analysis, pancreatic cancer BxPC-3; assay type: cell-based, human; conditions: Homo sapiens, BXPC-3, 72 h, read-out: The results of antibiotic drug inhibiting cancer cell lines (cell viability analysis), BxPC-3
[7] = test system: HI650 (Lung Adenocarcinoma); experiment: Cell viability analysis, lung cancer HI650; assay type: cell-based, human; conditions: Homo sapiens, NCI-H1650, 72 h
[8] = test system: MDA-MB-231 (Mammary Gland, Adenocarcinoma); experiment: Cell viability analysis, breast cancer MDA-MB-231; assay type: cell-based, human; conditions: Homo sapiens, MDA-MB-231, 72 h, read-out: The results of antibiotic drug inhibiting cancer cell lines (cell viability analysis), MDA-MB231
[9] = test system: HepG2 (Hepatocellular Carcinoma); experiment: Cell viability analysis, hepatic cancer HepG2; assay type: cell-based, human; conditions: Homo sapiens, HepG2, 72 h
[10] = test system: HCT116 (p53+) (Colorectal Carcinoma)
[11] = test system: BCC (basal cell carcinoma); experiment: Cell viability analysis, skin cancer BCC; assay type: cell-based, human; conditions: Homo sapiens, 72 h, read-out: The results of antibiotic drug inhibiting cancer cell lines (cell viability analysis), BCC
[12] = test system: HeLa (Cervix Adenocarcinoma); experiment: Cell viability analysis, cervical cancer HeLa; assay type: cell-based, human; conditions: Homo sapiens, HeLa, 72 h
[13] = test system: 786-O (Renal adenocarcinoma); experiment: Cell viability analysis, renal cancer 786-O; assay type: cell-based, human; conditions: Homo sapiens, 786-0, 72 h, read-out: The results of antibiotic drug inhibiting cancer cell lines (cell viability analysis), 786-O
[14] = test system: HL-60 (Acute Promyelocytic Leukemia); experiment: Cell viability analysis, leukemia HL-60; assay type: cell-based, human; conditions: Homo sapiens, HL-60, 72 h, read-out: cell viability (survival rate), HL-60, drug 10 μM, 72 hours, WST-1, OD450 nm
U-2OS = experiment: Cell viability analysis, osteosarcoma U-2OS; assay type: cell-based, human; conditions: Homo sapiens, U2OS, 72 h, read-out: The results of antibiotic drug inhibiting cancer cell lines (cell viability analysis), U2OS
[15] = test system: PC3 (p53−) (Prostate Adenocarcinoma); experiment: Cell viability analysis, prostate cancer PC3; assay type: cell-based, human; conditions: Homo sapiens, 72 h
[16] = test system: C-33A (Cervical carcinoma); experiment: Cell viability analysis, cervical cancer C-33A; assay type: cell-based, human; conditions: Homo sapiens, C-33-A, 72 h, read-out: The results of antibiotic drug inhibiting cancer cell lines (cell viability analysis), C-33A
NIH: OVCAR-3 = experiment: Cell viability analysis, ovarian cancer NIH: OVCAR-3; assay type: cell-based, human; conditions: Homo sapiens, OVCAR-3, 72 h, read-out: The results of antibiotic drug inhibiting cancer cell lines (cell viability analysis), NIH-OVCAR-3
[17] = test system: A375 (Amelanotic Melanoma); experiment: Cell viability analysis, skin cancer A375; assay type: cell-based, human; conditions: Homo sapiens, A-375, 72 h
[18] = test system: Hep3B (hepatocellular carcinoma); experiment: Cell viability analysis, hepatic cancer Hep3B; assay type: cell-based, human; conditions: Homo sapiens, Hep3B, 72 h, read-out: The results of antibiotic drug inhibiting cancer cell lines (cell viability analysis), Hep3B
[19] = read-out: The results of antibiotic drug inhibiting cancer cell lines (cell viability analysis), MCF-7, MCF-7, repeated experiment
[20] = read-out: cell viability (survival rate), MCF7, drug 10 μM, 72 hours, WST-1, OD450 nm
[21] = read-out: The results of antibiotic drug inhibiting cancer cell lines (cell viability analysis), A549, A549, repeated experiment
[22] = read-out: cell viability (survival rate), A549, drug 10 μM, 72 hours, WST-1, OD450 nm
[23] = read-out: The results of antibiotic drug inhibiting cancer cell lines (cell viability analysis), AGS, repeated experiment
[24] = read-out: cell viability (survival rate), AGS, drug 10 μM, 72 hours, WST-1, OD450 nm
[25] = read-out: The results of antibiotic drug inhibiting cancer cell lines (cell viability analysis), LoVo, repeated experiment
[26] = read-out: cell viability (survival rate), LoVo, drug 10 μM, 72 hours, WST-1, OD450 nm
[27] = read-out: The results of antibiotic drug inhibiting cancer cell lines (cell viability analysis), MKN-45, MKN-45, repeated experiment
[28] = read-out: cell viability (survival rate), MKN-45, drug 10 μM, 72 hours, WST-1, OD450 nm
[29] = read-out: The results of antibiotic drug inhibiting cancer cell lines (cell viability analysis), H1650, H1650, repeated experiment
[30] = read-out: cell viability (survival rate), H1650, drug 10 μM, 72 hours, WST-1, OD450 nm
[31] = read-out: The results of antibiotic drug inhibiting cancer cell lines (cell viability analysis), HepG2, HepG2, repeated experiment
[32] = read-out: cell viability (survival rate), HepG2, drug 10 μM, 72 hours, WST-1, OD450 nm
[33] = read-out: The results of antibiotic drug inhibiting cancer cell lines (cell viability analysis), HeLa, repeated experiment
[34] = read-out: cell viability (survival rate), HeLa, drug 10 μM, 72 hours, WST-1, OD450 nm
[35] = read-out: The results of antibiotic drug inhibiting cancer cell lines (cell viability analysis), PC-3, PC-3, repeated experiment
[36] = read-out: cell viability (survival rate), PC3, drug 10 μM, 72 hours, WST-1, OD450 nm
[37] = read-out: The results of antibiotic drug inhibiting cancer cell lines (cell viability analysis), A375, A375, repeated experiment
[38] = read-out: cell viability (survival rate), A375, drug 10 μM, 72 hours, WST-1, OD450 nm

SMILES | viability at 10 µM [1, 19] [%] | viability at 10 µM [1, 20] [%] | viability at 10 µM (T24) [%] | viability at 10 µM [2, 21] [%] | viability at 10 µM [2, 22] [%] | viability at 10 µM [3, 23] [%] | viability at 10 µM [3, 24] [%] | viability at 10 µM [4, 25] [%] | viability at 10 µM [4, 26] [%] | viability at 10 µM (AsPC-1) [%] | viability at 10 µM (TOV-21G) [%] | inhibition effect on different cancer cell lines (cancer cell lines) | viability at 10 µM [5, 27] [%] | viability at 10 µM [5, 28] [%] | viability at 10 µM [6] [%] | viability at 10 µM (BxPC-3) [%] | viability at 10 µM [7, 29] [%] | viability at 10 µM [7, 30] [%] | viability at 10 µM [8] [%] | viability at 10 µM [9, 31] [%] | also measured
CC(NC(C)(C)C)C(=O)c1cccc(Cl)c1 (stereo not drawn) [Amfebutamone (Bupropion), Amfebutamone] | 69 | 64.7 | 99.6 | 69.1 | 59.2 | 117 | 30 | 115 | 51.4 | 84.3 | 97.5 | significant inhibition effect | 103 | 52.1 | 110 | 79.6 | 96 | 74.3 | 80.3 | 92.3 | viability at 10 µM [9, 32]: 85.1%; viability [10]: 78.3%; viability at 10 µM [11]: 77.5%; viability at 10 µM [12, 33]: 84.5%; viability at 10 µM [12, 34]: 53.4%; viability at 10 µM [13]: 103%; viability at 10 µM [14]: 118%; viability at 10 µM (U-2OS): 92.3%; viability at 10 µM [15, 35]: 87.9%; viability at 10 µM [15, 36]: 62.8%; viability at 10 µM [16]: 107%; viability at 10 µM (NIH: OVCAR-3): 109%; viability at 10 µM [17, 37]: 88.4%; viability at 10 µM [17, 38]: 88.2%; viability at 10 µM [18]: 82.1%
CC(C)(C)C(=O)OCOP(=O)(COCCn1cnc2c(N)ncnc21)OCOC(=O)C(C)(C)C [Adefovir Dipivoxil (Preveon, Hepsera), Adefovir Dipivoxil] | 75.5 | 56.7 | 44.8 | 76.7 | 47.3 | 78 | 35.1 | 58.1 | 62 | 48.7 | 77.3 | significant inhibition effect | 86.6 | 46.1 | 40 | 56.9 | 54 | 55.3 | 71.9 | 80.1 | viability at 10 µM [9, 32]: 95.5%; viability [10]: 55.4%; viability at 10 µM [11]: 38.9%; viability at 10 µM [12, 33]: 77.4%; viability at 10 µM [12, 34]: 96.6%; viability at 10 µM [13]: 25.9%; viability at 10 µM [14]: 60.4%; viability at 10 µM (U-2OS): 68.5%; viability at 10 µM [15, 35]: 74.8%; viability at 10 µM [15, 36]: 91.3%; viability at 10 µM [16]: 68%; viability at 10 µM (NIH: OVCAR-3): 78.8%; viability at 10 µM [17, 37]: 37.7%; viability at 10 µM [17, 38]: 81.7%; viability at 10 µM [18]: 71.5%
Clc1ccc(COC(Cn2ccnc2)c2ccc(Cl)cc2Cl)c(Cl)c1 (stereo not drawn) [Miconazole nitrate] | 95.6 | 50.7 | 77.7 | 97.3 | 37.3 | 114 | 51.1 | 81.3 | 62.1 | 75.5 | 80.6 | significant inhibition effect | 99.8 | 45 | 69.6 | 65.3 | 83.1 | 68.8 | 107 | 108 | viability at 10 µM [9, 32]: 104%; viability [10]: 122%; viability at 10 µM [11]: 80.7%; viability at 10 µM [12, 33]: 95.7%; viability at 10 µM [12, 34]: 57.6%; viability at 10 µM [13]: 75.2%; viability at 10 µM [14]: 41.4%; viability at 10 µM (U-2OS): 64.2%; viability at 10 µM [15, 35]: 116%; viability at 10 µM [15, 36]: 30.4%; viability at 10 µM [16]: 117%; viability at 10 µM (NIH: OVCAR-3): 94.8%; viability at 10 µM [17, 37]: 100%; viability at 10 µM [17, 38]: 31.5%; viability at 10 µM [18]: 126%
